How the values were obtained:
[1] = tested on: recombinant NL4-3 virus (nef section replaced with Renilla luciferase gene) in MT-2 cells; experiment: HIV cell culture assay (antiviral activity, luciferase readout); type: cell-based; details: Renilla, NL43, MT-2 cells infected for 4-5 days with recombinant NL4-3 Renilla luciferase virus
Procedure: HIV cell culture assay—MT-2 cells, 293T cells and the proviral DNA clone of NL4-3 virus were obtained from the NIH AIDS Research and Reference Reagent Program. MT-2 cells were propagated in RPMI 1640 media supplemented with 10% heat inactivated fetal bovine serum (FBS), 100 jag/ml penicillin G and up to 100 units/mL streptomycin. The 293T cells were propagated in DMEM media supplemented with 10% heat inactivated FBS, 100 μg/mL penicillin G and 100 μg/mL streptomycin. A recombinant NL4-3 proviral clone, in which a section of the nef gene was replaced with the Renilla luciferase gene, was used to make the reference virus used in these studies. The recombinant virus was prepared through transfection of the recombinant NL4-3 proviral clone into 293T cells using Transit-293 Transfection Reagent from Mirus Bio LLC (Madison, Wis.). Supernatant was harvested after 2-3 days and the amount of virus present was titered in MT-2 cells using luciferase enzyme activity as a marker by measuring luciferase enzyme activity. Luciferase was quantitated using the EnduRen Live Cell Substrate from Promega (Madison, Wis.). Antiviral activities of compounds toward the recombinant virus were quantified by measuring luciferase activity in MT-2 cells infected for 4-5 days with the recombinant virus in the presence of serial dilutions of the compound.
(Johnson V A, Byington R T. Infectivity Assay. In Techniques in HIV Research. ed. Aldovini A, Walker B D. 71-76. New York: Stockton Press. 1990).

[2] = Compound cytotoxicity, XTT-based colorimetric assay; type: cell-based; details: human, uninfected MT2 cells, day 4, XTT
Procedure: Compound cytotoxicity and the corresponding CC50 values were determined using the same protocol as described in the antiviral assay except that uninfected cells were used. Cytotoxicity was assessed on day 4 in uninfected MT2 cells by using a XTT (2,3-bis[2-Methoxy-4-nitro-5-sulfophenyl]-2H-tetrazolium-5-carboxyanilide inner salt)-based colorimetric assay (Sigma-Aldrich, St Louis, Mo.).

SMILES	EC50 [1] [nM]	CC50 at 4 days [2] [nM]
COc1ccc(N(C)C(=O)[C@H](Cc2ccccc2)NC(=O)NS(=O)(=O)N(C)c2ccc(OC)cc2)cc1 [JB-28]	210	> 100000
CN(C(=O)[C@H](Cc1cc(F)cc(F)c1)NC(=O)NS(=O)(=O)N(C)C)c1ccc(OC(F)F)cc1 [BB-37]	100	> 100000
COc1ccc(N(C)C(=O)[C@H](Cc2ccccc2)NC(=O)NS(=O)(=O)Nc2ccc(F)c(F)c2)cc1 [JB-51]	110	> 100000
COc1ccc(N(C)C(=O)[C@H](Cc2ccccc2)NC(=O)NS(=O)(=O)N(C)c2ccccc2C)cc1 [JB-18]	560	> 100000
COc1ccc(N(C)C(=O)[C@H](Cc2ccccc2)NC(=O)NS(=O)(=O)n2nc(-c3ccccc3)c3ccccc32)cc1 [CA-63]	30200	73700
CN(C(=O)[C@H](Cc1cc(F)cc(F)c1)NC(=O)NS(=O)(=O)N1CCc2cccnc21)c1ccc(N2CCOCC2)cc1 [BB-3]	340	68100
Cc1ncc(N(C)C(=O)[C@H](Cc2cc(F)cc(F)c2)NC(=O)NS(=O)(=O)N2CCc3cccnc32)cn1 [GW-14]	1610	> 100000
COc1ccc(N(C)C(=O)[C@H](Cc2ccccc2)NC(=O)NS(=O)(=O)Nc2ccc(C#N)cc2)cc1 [CA-15]	70	> 100000
CN(C(=O)[C@H](Cc1cc(F)cc(F)c1)NC(=O)NS(=O)(=O)N1CCc2ccccc21)c1ccc2scnc2c1 [ZY-8]	20	88000
CN(C(=O)[C@H](Cc1cc(F)cc(F)c1)NC(=O)NS(=O)(=O)N1CCc2cccnc21)c1ccc(CC(F)F)cc1 [BB-24]	10	> 33300
COc1ccc(N(C)C(=O)[C@H](Cc2ccccc2)NC(=O)NS(=O)(=O)Nc2ccc(C)cc2)cc1 [JB-26]	40	> 100000
COc1ccc(N(C)C(=O)[C@H](Cc2ccccc2)NC(=O)NS(=O)(=O)Nc2ncccn2)cc1 [JB-29]	1600	> 100000
COc1ccc(N(C)C(=O)[C@H](Cc2ccccc2)NC(=O)NS(=O)(=O)N2CCc3ccccc3C2)cc1 [JB-7]	200	> 100000
CCOc1ccc(N(CC)C(=O)[C@H](Cc2ccccc2)NC(=O)NS(=O)(=O)N2CCc3ccccc32)cc1 [JB-73]	50	> 33300
CN(C(=O)[C@H](Cc1cc(F)cc(F)c1)NC(=O)N(C)S(=O)(=O)N1CCc2cccnc21)c1ccc2scnc2c1 [BB-25]	530	> 33300
COc1ccc(N(C)C(=O)[C@H](Cc2ccccc2)NC(=O)NS(=O)(=O)Nc2ccc3ccccc3c2)cc1 [CA-5]	180	> 33300
COc1ccc(N(C)C(=O)[C@H](Cc2ccccc2)NC(=O)NS(=O)(=O)NCC(=O)N2CCN(c3ccccc3)CC2)cc1 [CA-58]	7450	> 100000
COc1ccc(N(C)C(=O)[C@H](Cc2ccccc2)NC(=O)NS(=O)(=O)N2CCc3cc(OC)cc(C)c32)cc1 [CA-56]	1310	> 100000
COc1ccc(N(C)C(=O)[C@H](Cc2ccccc2)NC(=O)NS(=O)(=O)N2CCc3cccnc32)cc1 [JB-31]	140	> 100000
COCCN(C)S(=O)(=O)NC(=O)N[C@@H](Cc1cc(F)cc(F)c1)C(=O)N(C)c1ccc2scnc2c1 [CA-149]	80	> 100000
CN(C(=O)[C@H](Cc1cc(F)cc(F)c1)NC(=O)NS(=O)(=O)Nc1cccnc1)c1ccc2scnc2c1 [CA-123]	160	> 100000
CN(C(=O)[C@H](Cc1cc(F)cc(F)c1)NC(=O)NS(=O)(=O)N(C)c1cccnc1)c1ccc2scnc2c1 [CA-120]	270	> 100000
CC(C)CNS(=O)(=O)NC(=O)N[C@@H](Cc1cc(F)cc(F)c1)C(=O)N(C)c1ccc2scnc2c1 [CA-144]	40	> 100000
COc1ccc(N(C)C(=O)[C@H](Cc2cc(F)cc(F)c2)NC(=O)NS(=O)(=O)N2CCC[C@@H]2C(=O)N(C)C)cc1 [BB-27]	970	> 100000
CC(=O)NCCNS(=O)(=O)NC(=O)N[C@@H](Cc1cc(F)cc(F)c1)C(=O)N(C)c1ccc2scnc2c1 [CA-137]	1220	> 100000
COc1ccc(N(C)C(=O)[C@H](Cc2ccccc2)NC(=O)NS(=O)(=O)Nc2ccccc2F)cc1 [CA-7]	140	> 100000

SMILES	EC50 [1] [nM]	CC50 at 4 days [2] [nM]
COc1ccc(N(C)C(=O)[C@H](Cc2ccccc2)NC(=O)NS(=O)(=O)N2CCN(C)CC2c2ccccc2)cc1 (mixture of isomers) [JB-42]	450	> 100000
COc1ccc(N(C)C(=O)[C@H](Cc2ccccc2)NC(=O)NS(=O)(=O)Nc2ccc(Cc3ccncc3)cc2)cc1 [CA-39]	330	> 100000
COc1ccc(N(C)C(=O)[C@H](Cc2ccccc2)NC(=O)NS(=O)(=O)N2Cc3ccccc3S2(=O)=O)cc1 [JB-79]	8610	> 100000
COc1ccc(N(C)C(=O)[C@H](Cc2ccccc2)NC(=O)NS(=O)(=O)Nc2ccccc2C#N)cc1 [CA-6]	380	> 100000
CN(C(=O)[C@H](Cc1cc(F)cc(F)c1)NC(=O)NS(=O)(=O)NCCO)c1ccc2scnc2c1 [CA-138]	270	> 100000
CN(C(=O)[C@H](Cc1cc(F)cc(F)c1)NC(=O)NS(=O)(=O)N1CCc2cc(F)ccc21)c1ccc2scnc2c1 [ZY-12]	110	> 100000
COc1ccc(N(C)C(=O)[C@H](Cc2ccccc2)NC(=O)NS(=O)(=O)Nc2ccc(Cl)cc2Cl)cc1 [CA-50]	110	> 100000
COc1ccc(N(C)C(=O)[C@H](Cc2ccccc2)NC(=O)NS(=O)(=O)NCc2cnc3ccccc3c2)cc1 [JB-45]	9450	> 50000
COc1ccccc1N(C)S(=O)(=O)NC(=O)N[C@@H](Cc1ccccc1)C(=O)N(C)c1ccc2ncccc2c1 [JB-13]	260	> 33300
CN(C(=O)[C@H](Cc1cc(F)cc(F)c1)NC(=O)NS(=O)(=O)N1CCc2ccnnc21)c1ccc2scnc2c1 [VN-17]	70	> 100000
COc1ccc(N(C)C(=O)[C@H](Cc2ccccc2)NC(=O)NS(=O)(=O)Nc2cccc(C#N)c2)cc1 [CA-9]	260	> 100000
CCN(c1ccccc1)S(=O)(=O)NC(=O)N[C@@H](Cc1cc(F)cc(F)c1)C(=O)N(C)c1ccc2scnc2c1 [ZY-9]	180	> 100000
CCNS(=O)(=O)NC(=O)N[C@@H](Cc1cc(F)cc(F)c1)C(=O)N(C)c1ccc2scnc2c1 [CA-124]	110	> 100000
COc1ccc(N(C)C(=O)[C@H](Cc2ccccc2)NC(=O)NS(=O)(=O)Nc2cc(Cl)ccc2F)cc1 [JB-49]	200	> 100000
COc1ccc(N(C)C(=O)[C@H](Cc2ccccc2)NC(=O)NS(=O)(=O)NCCc2ccccc2)cc1 [JB-33]	680	> 100000
COc1ccc(N(C)C(=O)[C@H](Cc2ccccc2)NC(=O)NS(=O)(=O)Nc2ccccc2C)cc1 [JB-17]	80	> 100000
COc1ccc(N(C)C(=O)[C@H](Cc2ccccc2)NC(=O)NS(=O)(=O)Nc2ccc(OC(F)(F)F)cc2)cc1 [CA-34]	180	> 33300
COc1ccc(N(C)C(=O)[C@H](Cc2ccccc2)NC(=O)NS(=O)(=O)Nc2cccc3ccccc23)cc1 [CA-4]	410	89400
COc1ccc(N(C)C(=O)[C@H](Cc2ccccc2)NC(=O)NS(=O)(=O)Nc2cccc(-c3ccccc3)c2)cc1 [CA-37]	1200	> 33300
Cc1nc2cc(N(C)C(=O)[C@H](Cc3cc(F)cc(F)c3)NC(=O)NS(=O)(=O)N3CCc4cccnc43)ccc2s1 [ZY-23]	80	> 100000
COc1ccc(N(C)C(=O)[C@H](Cc2ccccc2)NC(=O)NS(=O)(=O)Nc2ccc3c(c2)CCC3)cc1 [CA-11]	70	> 100000
COc1ccc(N(C)C(=O)[C@H](Cc2ccccc2)NC(=O)NS(=O)(=O)NC(C)c2cnn(C)c2C)cc1 (some centres unmarked) [JB-60]	270	> 100000
CN(C(=O)[C@H](Cc1cc(F)cc(F)c1)NC(=O)NS(=O)(=O)Nc1ccccc1)c1ccc2scnc2c1 [CA-115]	60	> 100000
CN(C(=O)[C@H](Cc1cc(F)cc(F)c1)NC(=O)NS(=O)(=O)N1CCC[C@H]1CO)c1ccc2scnc2c1 [CA-131]	210	> 100000
O=C(N[C@@H](Cc1cc(F)cc(F)c1)C(=O)N(CCOCc1ccccc1)c1ccc2scnc2c1)NS(=O)(=O)N1CCc2cccnc21 [BB-34]	40	70600
COc1ccc(N(C)C(=O)[C@H](Cc2ccccc2)NC(=O)NS(=O)(=O)N(C)c2ccccc2Cl)cc1 [JB-6]	660	> 100000
